# What was measured:
# Veillonella spp. = assay: Agar dilution MIC; assay type: cell-based
# [1] = test system: Porphyromonas spp. [P. asaccharolytica, P. canoris, P. gingivalis, P. macaccae]; assay: Agar dilution MIC, Porphyromonas spp. as a group; assay type: cell-based; conditions: read-out: concentration to which all strains were susceptible (MIC)
# Prevotella intermedia = assay: Agar dilution MIC; assay type: cell-based
# [2] = test system: Peptostreptococcus magnus; assay: Agar dilution MIC; assay type: cell-based; conditions: Finegoldia magna
# [3] = test system: certain Prevotella strains; conditions: Goldstein, et al.; cited from earlier work
# Actinomyces israelii = assay: Agar dilution MIC; assay type: cell-based
# Fusobacterium russii = assay: Agar dilution MIC; assay type: cell-based
# [4] = test system: Fusobacterium spp group 1; assay: Agar dilution MIC; assay type: cell-based
# Bacteroides gracilis = assay: Agar dilution MIC; assay type: cell-based, Bacteroides gracilis (Campylobacter gracilis)
# [5] = test system: Fusobacterium spp. group 2; assay: Agar dilution MIC; assay type: cell-based, Fusobacterium mortiferum, necrogenes, ulcerans; conditions: Fusobacterium
# Fusobacterium naviforme = assay: Agar dilution MIC; assay type: cell-based; conditions: read-out: concentration to which strains were susceptible (MIC)
# [6] = test system: Clostridium clostridioforme; assay: Agar dilution MIC; assay type: cell-based
# Clostridium dfficile = assay: Agar dilution MIC; assay type: cell-based, Clostridium difficile
# [7] = test system: Actinomyces odontolyticus; assay: Agar dilution MIC; assay type: cell-based
# Bacteroides tectum = assay: Agar dilution MIC; assay type: cell-based
# Prevotella bivia = assay: Agar dilution MIC; assay type: cell-based
# Porphyromonas spp. = assay: Agar dilution MIC; assay type: cell-based, Porphyromonas cangingivalis, cansulci, circumdentaria, levii
# Bacteroides fragilis = conditions: Goldstein, et al.; cited from earlier work
# [8] = test system: Anaerobiospirillum succiniciproducens; assay: Agar dilution MIC; assay type: cell-based
# Porphyromonas canoris = assay: Agar dilution MIC; assay type: cell-based
# [9] = test system: Prevotella buccae-oris group; assay: Agar dilution MIC; assay type: cell-based
# Clostridium ramosum = assay: Agar dilution MIC; assay type: cell-based
# Porphyromonas gingivalis = assay: Agar dilution MIC; assay type: cell-based; conditions: Porphyromonas gingivalis
# Bilophila wadsworthia = assay: Agar dilution MIC; assay type: cell-based
# [10] = test system: Peptostreptococcus asaccharolyticus; assay: Agar dilution MIC; assay type: cell-based
# [11] = test system: Peptostreptococcus prevotii; assay: Agar dilution MIC; assay type: cell-based
# [12] = test system: Prevotella denticola/loeschii group; assay: Agar dilution MIC; assay type: cell-based
# [13] = test system: Peptostreptococcus micros; assay: Agar dilution MIC; assay type: cell-based
# [14] = test system: Porphyromonas asaccharolyticus; assay: Agar dilution MIC; assay type: cell-based, Porphyromonas asaccharolytica
# Porphyromonas macaccae = assay: Agar dilution MIC; assay type: cell-based
# [15] = test system: Prevotella melaninogenica; assay: Agar dilution MIC; assay type: cell-based
# Bacteroides ureolyticus = assay: Agar dilution MIC; assay type: cell-based
# Fusobacterium varium = assay: Agar dilution MIC; assay type: cell-based
# [16] = test system: Anaerobiospirillum thomasii; assay: Agar dilution MIC; assay type: cell-based
# peptostreptococci = assay: Agar dilution MIC, peptostreptococci as a group; assay type: cell-based, P. asaccharolyticus, P. magnus, P. micros, P. prevotii; conditions: 45 strains of peptostreptococci from 4 species; read-out: concentration to which all strains were susceptible (MIC)
# Clostridium inocuum = assay: Agar dilution MIC; assay type: cell-based, Clostridium innocuum
# [17] = test system: Prevotella heparinolytica; assay: Agar dilution MIC; assay type: cell-based
# [18] = read-out: Minimal Inhibitory Concentration 50% (MIC50)
# [19] = 13 isolates, read-out: Minimal Inhibitory Concentration 90% (MIC90)
# [20] = Clostridium, 11 isolates, read-out: Minimal Inhibitory Concentration 90% (MIC90)
# [21] = Clostridium, read-out: Minimal Inhibitory Concentration 50% (MIC50)
# [22] = Porphyromonas, read-out: Minimal Inhibitory Concentration 50% (MIC50)
# [23] = Porphyromonas, 11 isolates, read-out: Minimal Inhibitory Concentration 90% (MIC90)
smiles,measurement,setting,value
"CO/N=C1\CN(c2nc3c(cc2F)c(=O)c(C(=O)O)cn3C2CC2)CC1CN (racemic) [Gemifloxacin, (R,S)-7-(3-aminomethyl-4-methoxyiminopyrrolidin-1-yl)-1-cyclopropyl-6-fluoro-4-oxo-1,4-dihydro-1,8-naphthyridine-3-carboxylic acid]",Minimal Inhibitory Concentration 90% (MIC90),Veillonella spp.; 24 isolates,8 µg/mL
same,MIC90,"Veillonella spp.; Veillonella, 24 isolates, read-out: Minimal Inhibitory Concentration 90% (MIC90)",≥ 4 µg/mL
same,MIC50,"Veillonella spp.; Veillonella, read-out: Minimal Inhibitory Concentration 50% (MIC50)",1 µg/mL
same,MIC,[1],≤ 0.25 µg/mL
same,Minimal Inhibitory Concentration 90% (MIC90),Prevotella intermedia; 11 isolates,0.5 µg/mL
same,Minimal Inhibitory Concentration Range,Prevotella intermedia; 11 isolates,0.06 to 1 µg/mL
same,Minimal Inhibitory Concentration 90% (MIC90),"Prevotella intermedia; 11 isolates, listed as gemifloxacin",≤ 2 µg/mL
same,MIC50,"Prevotella intermedia; Prevotella intermedia, read-out: Minimal Inhibitory Concentration 50% (MIC50)",0.25 µg/mL
same,MIC50,[2]; [18],0.03 µg/mL
same,MIC90,[2]; [19],0.06 µg/mL
same,activity,[3],showed activity
same,Minimal Inhibitory Concentration Range,Actinomyces israelii; 6 isolates,0.5 to 2 µg/mL
same,MIC50,"Actinomyces israelii; Actinomyces israelii, read-out: Minimal Inhibitory Concentration 50% (MIC50)",1 µg/mL
same,MIC90,"Actinomyces israelii; Actinomyces israelii, stated in text only",≤ 2 µg/mL
same,Minimal Inhibitory Concentration 90% (MIC90),Fusobacterium russii,>8 µg/mL
same,MIC50,"Fusobacterium russii; Fusobacterium russii, read-out: Minimal Inhibitory Concentration 50% (MIC50)",> 8 µg/mL
same,MIC90,"Fusobacterium russii; Fusobacterium russii, read-out: Minimal Inhibitory Concentration 90% (MIC90)",≥ 4 µg/mL
same,Minimal Inhibitory Concentration Range,[4]; 19 isolates,0.06 to 8 µg/mL
same,MIC50,"[4]; Fusobacterium, GROUP1, read-out: Minimal Inhibitory Concentration 50% (MIC50)",0.25 µg/mL
same,MIC90,"[4]; Fusobacterium, GROUP1, 19 isolates, read-out: Minimal Inhibitory Concentration 90% (MIC90)",8 µg/mL
same,Minimal Inhibitory Concentration 90% (MIC90),Bacteroides gracilis; 11 isolates,1 µg/mL
same,MIC90,"Bacteroides gracilis; Campylobacter gracilis, 11 isolates, read-out: Minimal Inhibitory Concentration 90% (MIC90)",≤ 2 µg/mL
same,MIC50,"Bacteroides gracilis; Campylobacter gracilis, read-out: Minimal Inhibitory Concentration 50% (MIC50)",≤ 0.015 µg/mL
same,MIC50,[5]; [18],4 µg/mL
same,MIC90,"[5]; 12 isolates, read-out: Minimal Inhibitory Concentration 90% (MIC90)",4 µg/mL
same,MIC,Fusobacterium naviforme,≤ 2 µg/mL
same,susceptibility to gemifloxacin,[6],relatively susceptible
same,Minimal Inhibitory Concentration 90% (MIC90),[6]; 11 isolates,1 µg/mL
same,MIC90,[6]; [20],≤ 2 µg/mL
same,MIC50,[6]; [21],0.5 µg/mL
same,susceptibility to gemifloxacin,Clostridium dfficile,often resistant
same,Minimal Inhibitory Concentration 90% (MIC90),Clostridium dfficile; 14 isolates,>8 µg/mL
same,MIC50,Clostridium dfficile; [21],2 µg/mL
same,MIC90,"Clostridium dfficile; Clostridium, read-out: Minimal Inhibitory Concentration 90% (MIC90), 14 isolates",≥ 4 µg/mL
same,Minimal Inhibitory Concentration 90% (MIC90),[7]; 10 isolates,2 µg/mL
same,Minimal Inhibitory Concentration Range,[7]; 10 isolates,1 to 2 µg/mL
same,MIC90,"[7]; Schaalia odontolytica, 10 isolates, read-out: Minimal Inhibitory Concentration 90% (MIC90)",≤ 2 µg/mL
same,MIC50,"[7]; Schaalia odontolytica, read-out: Minimal Inhibitory Concentration 50% (MIC50)",2 µg/mL
same,Minimal Inhibitory Concentration 90% (MIC90),Bacteroides tectum; 22 isolates,0.25 µg/mL
same,Minimal Inhibitory Concentration Range,Bacteroides tectum; 22 isolates,0.06 to 8 µg/mL
same,Minimal Inhibitory Concentration 90% (MIC90),"Bacteroides tectum; 22 isolates, listed as gemifloxacin",≤ 2 µg/mL
same,MIC50,"Bacteroides tectum; Bacteroides pyogenes, read-out: Minimal Inhibitory Concentration 50% (MIC50)",0.125 µg/mL
same,Minimal Inhibitory Concentration 90% (MIC90),Prevotella bivia; 21 isolates,8 µg/mL
same,MIC90,"Prevotella bivia; Prevotella bivia, 21 isolates, read-out: Minimal Inhibitory Concentration 90% (MIC90)",≥ 4 µg/mL
same,MIC50,"Prevotella bivia; Prevotella bivia, read-out: Minimal Inhibitory Concentration 50% (MIC50)",8 µg/mL
same,Minimal Inhibitory Concentration Range,Porphyromonas spp.; 11 isolates,0.06 to 0.125 µg/mL
same,MIC50,Porphyromonas spp.; [22],0.06 µg/mL
same,MIC90,Porphyromonas spp.; [23],0.125 µg/mL
same,activity,Bacteroides fragilis,showed activity
same,Minimal Inhibitory Concentration Range,[8]; 3 isolates,0.5 to 2 µg/mL
same,MIC50,"[8]; Anaerobiospirillum succiniciproducens, read-out: Minimal Inhibitory Concentration 50% (MIC50)",1 µg/mL
same,Minimal Inhibitory Concentration Range,Porphyromonas canoris; 10 isolates,0.06 to 0.25 µg/mL
same,MIC50,"Porphyromonas canoris; Porphyromonas canoris, read-out: Minimal Inhibitory Concentration 50% (MIC50)",0.25 µg/mL
same,MIC90,"Porphyromonas canoris; Porphyromonas canoris, 10 isolates, read-out: Minimal Inhibitory Concentration 90% (MIC90)",0.25 µg/mL
same,Minimal Inhibitory Concentration 90% (MIC90),[9]; 22 isolates,2 µg/mL
same,Minimal Inhibitory Concentration Range,[9]; 22 isolates,0.5 to 8 µg/mL
same,MIC90,"[9]; Prevotella, 22 isolates, read-out: Minimal Inhibitory Concentration 90% (MIC90)",≤ 2 µg/mL
same,MIC50,"[9]; Prevotella, read-out: Minimal Inhibitory Concentration 50% (MIC50)",2 µg/mL
same,Minimal Inhibitory Concentration Range,Clostridium ramosum; 10 isolates,0.125 to 2 µg/mL
same,MIC50,"Clostridium ramosum; Thomasclavelia ramosa, read-out: Minimal Inhibitory Concentration 50% (MIC50)",0.25 µg/mL
same,MIC90,"Clostridium ramosum; Thomasclavelia ramosa, 10 isolates, read-out: Minimal Inhibitory Concentration 90% (MIC90)",1 µg/mL
same,MIC50,Porphyromonas gingivalis; [18],0.06 µg/mL
same,MIC90,Porphyromonas gingivalis; [19],0.125 µg/mL
same,Minimal Inhibitory Concentration 90% (MIC90),"Bilophila wadsworthia; 16 isolates, agar supplemented with pyruvate",4 µg/mL
same,MIC90,"Bilophila wadsworthia; Bilophila wadsworthia, 16 isolates, agar supplemented with pyruvate, read-out: Minimal Inhibitory Concentration 90% (MIC90)",≥ 4 µg/mL
same,MIC50,"Bilophila wadsworthia; Bilophila wadsworthia, read-out: Minimal Inhibitory Concentration 50% (MIC50)",0.25 µg/mL
same,Minimal Inhibitory Concentration Range,[10]; 11 isolates,0.125 to 0.25 µg/mL
same,MIC50,"[10]; Peptoniphilus asaccharolyticus, read-out: Minimal Inhibitory Concentration 50% (MIC50)",0.25 µg/mL
same,MIC90,"[10]; Peptoniphilus asaccharolyticus, 11 isolates, read-out: Minimal Inhibitory Concentration 90% (MIC90)",0.25 µg/mL
same,Minimal Inhibitory Concentration Range,[11]; 9 isolates,0.06 to 0.25 µg/mL
same,MIC50,"[11]; Anaerococcus prevotii, read-out: Minimal Inhibitory Concentration 50% (MIC50)",0.125 µg/mL
same,Minimal Inhibitory Concentration Range,[12]; 6 isolates,0.25 to 8 µg/mL
same,MIC50,"[12]; Prevotella denticola, read-out: Minimal Inhibitory Concentration 50% (MIC50)",0.5 µg/mL
same,Minimal Inhibitory Concentration Range,[13]; 12 isolates,0.06 to 0.125 µg/mL
same,MIC50,"[13]; Parvimonas micra, read-out: Minimal Inhibitory Concentration 50% (MIC50)",0.06 µg/mL
same,MIC90,"[13]; Parvimonas micra, 12 isolates, read-out: Minimal Inhibitory Concentration 90% (MIC90)",0.06 µg/mL
same,Minimal Inhibitory Concentration Range,[14]; 11 isolates,0.06 to 0.125 µg/mL
same,MIC50,[14]; [22],0.06 µg/mL
same,MIC90,[14]; [23],0.125 µg/mL
same,Minimal Inhibitory Concentration Range,Porphyromonas macaccae; 13 isolates,0.03 to 0.125 µg/mL
same,MIC50,Porphyromonas macaccae; [22],0.06 µg/mL
same,MIC90,"Porphyromonas macaccae; Porphyromonas, 13 isolates, read-out: Minimal Inhibitory Concentration 90% (MIC90)",0.125 µg/mL
same,Minimal Inhibitory Concentration 90% (MIC90),[15]; 12 isolates,8 µg/mL
same,MIC90,"[15]; Prevotella melaninogenica, 12 isolates, read-out: Minimal Inhibitory Concentration 90% (MIC90)",≥ 4 µg/mL
same,MIC50,"[15]; Prevotella melaninogenica, read-out: Minimal Inhibitory Concentration 50% (MIC50)",1 µg/mL
same,Minimal Inhibitory Concentration 90% (MIC90),Bacteroides ureolyticus; 17 isolates,2 µg/mL
same,MIC90,"Bacteroides ureolyticus; Campylobacter ureolyticus, 17 isolates, read-out: Minimal Inhibitory Concentration 90% (MIC90)",≤ 2 µg/mL
same,MIC50,"Bacteroides ureolyticus; Campylobacter ureolyticus, read-out: Minimal Inhibitory Concentration 50% (MIC50)",≤ 0.015 µg/mL
same,susceptibility pattern of strains,Fusobacterium varium,bimodal pattern
same,MIC50,"Fusobacterium varium; Fusobacterium varium, read-out: Minimal Inhibitory Concentration 50% (MIC50)",> 8 µg/mL
same,MIC90,"Fusobacterium varium; Fusobacterium varium, 17 isolates, read-out: Minimal Inhibitory Concentration 90% (MIC90)",> 8 µg/mL
same,Minimal Inhibitory Concentration Range,[16]; 13 isolates,0.06 to 0.25 µg/mL
same,MIC50,"[16]; Anaerobiospirillum thomasii, read-out: Minimal Inhibitory Concentration 50% (MIC50)",0.125 µg/mL
same,MIC90,"[16]; Anaerobiospirillum thomasii, 13 isolates, read-out: Minimal Inhibitory Concentration 90% (MIC90)",0.125 µg/mL
same,MIC,peptostreptococci,≤ 0.25 µg/mL
same,susceptibility to gemifloxacin,Clostridium inocuum,relatively susceptible
same,Minimal Inhibitory Concentration 90% (MIC90),Clostridium inocuum; 11 isolates,2 µg/mL
same,MIC90,Clostridium inocuum; [20],≤ 2 µg/mL
same,MIC50,Clostridium inocuum; [21],0.25 µg/mL
same,Minimal Inhibitory Concentration 90% (MIC90),[17]; 16 isolates,0.5 µg/mL
same,Minimal Inhibitory Concentration Range,[17]; 16 isolates,0.25 to 0.5 µg/mL
same,Minimal Inhibitory Concentration 90% (MIC90),"[17]; 16 isolates, listed as gemifloxacin",≤ 2 µg/mL
same,MIC50,"[17]; Prevotella heparinolytica, read-out: Minimal Inhibitory Concentration 50% (MIC50)",0.5 µg/mL

# — US6455540B1, “Methods of use of quinolone compounds against anaerobic pathogenic bacteria” (priority 1999, dated 2002)
